TGI data for 22 compounds are collected here from PubChem BioAssay (NCI).

Some test systems named below: MDA-N; XF 498 CNS; DLD-1 colon; SNB-78 CNS; LXFL 529 NSCLC; HOP-18 NSCLC; DMS 114 small cell lung; M19-MEL melanoma; RXF-631 renal.
Holding throughout (assay): NCI tumour cell line growth inhibition, 48 h

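In this assay, cells in 96-well plates receive the compound at five concentrations for 48 hours. Endpoints are linearly interpolated between the surrounding concentrations. TGI: concentration producing complete growth inhibition.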

In turn, `CC(=O)OC1=CC2=CC[C@H]3[C@@H]4CCC(=O)[C@@]4(C)CC(=O)[C@]3(S)[C@@]2(C)CC1` yielded a TGI in the assay on MDA-N greater than 100 µM.

Take `NC(=O)c1c([N+](=O)[O-])cc(C(F)(F)F)cc1[N+](=O)[O-]`: the TGI is greater than 100 µM in the assay with XF 498 CNS; greater than 100 µM in the assay on DLD-1 colon; greater than 100 µM in the assay with SNB-78 CNS; greater than 100 µM in the assay with LXFL 529 NSCLC; greater than 100 µM in the assay on HOP-18 NSCLC; 73.3 µM with DMS 114 small cell lung.

Take `Cc1ccc(NC(=O)C2C(=O)N(c3ccc(C)c(C)c3)C(=O)/C2=N\NC(N)=O)cc1C` (centres undefined): the TGI in the assay with XF 498 CNS, in the assay on M19-MEL melanoma, in the assay with DLD-1 colon, in the assay with SNB-78 CNS, in the assay with LXFL 529 NSCLC and in the assay with HOP-18 NSCLC was greater than 100 µM each time. In the assay with DMS 114 small cell lung, this compound registered a TGI greater than 100 µM.

Take `O=S(=O)(O)c1ccc(N=Nc2nc(C(F)(F)F)c(C(F)(F)F)[nH]2)cc1`: the TGI with XF 498 CNS is 41.1 µM; in the assay on RXF-631 renal it was greater than 100 µM; in the assay with M19-MEL melanoma, greater than 100 µM; with DLD-1 colon, greater than 100 µM; with SNB-78 CNS, greater than 100 µM; with LXFL 529 NSCLC it was greater than 100 µM. For the same compound, the results for the TGI with HOP-18 NSCLC and with DMS 114 small cell lung were greater than 100 µM and 30.5 µM, respectively.

As for `Cc1noc2c1C(=O)CCC2`, the TGI with XF 498 CNS, in the assay on M19-MEL melanoma, with DLD-1 colon, in the assay with SNB-78 CNS, in the assay on LXFL 529 NSCLC and with HOP-18 NSCLC was greater than 100 µM in each case. In the assay with DMS 114 small cell lung, this compound gave a TGI greater than 100 µM.

Regarding `CCCCC(C)C(OC(=O)CC(CC(=O)O)C(=O)O)C(CC(C)CC(O)CCCCC(O)CC(O)C(C)N)OC(=O)CC(CC(=O)O)C(=O)O` (centres undefined), the TGI in the assay with XF 498 CNS, in the assay on RXF-631 renal, in the assay on M19-MEL melanoma, with DLD-1 colon, with LXFL 529 NSCLC and in the assay on HOP-18 NSCLC was greater than 100 µM throughout.

With `O=C(CSc1ncn[nH]1)C[P+](c1ccccc1)(c1ccccc1)c1ccccc1`, the TGI in the assay on XF 498 CNS, in the assay with M19-MEL melanoma, in the assay on DLD-1 colon, in the assay on SNB-78 CNS, in the assay on LXFL 529 NSCLC and in the assay on DMS 114 small cell lung was greater than 100 µM each time.

In the assay with MDA-N, `COc1cccc(CSCC(=O)O)c1` had a TGI greater than 100 µM.

`ON(Cc1ccccc1)C(=S)c1ccccc1`: the TGI with XF 498 CNS, with RXF-631 renal, with M19-MEL melanoma, in the assay with DLD-1 colon, with SNB-78 CNS and in the assay with MDA-N was greater than 100 µM each time. The TGI in the assay on LXFL 529 NSCLC was greater than 100 µM; in the assay with HOP-18 NSCLC, greater than 100 µM; with DMS 114 small cell lung it was 9.55 µM.

Consider `O=C1C2=C(c3ccccc31)C(c1ccccc1)N1C(=O)CSC1=N2` (centres undefined), for which the TGI was greater than 100 µM with XF 498 CNS; greater than 100 µM with RXF-631 renal; greater than 100 µM in the assay with M19-MEL melanoma; greater than 100 µM with DLD-1 colon; 47.3 µM with MDA-N; greater than 100 µM in the assay with LXFL 529 NSCLC. The compound also came in with a TGI in the assay with DMS 114 small cell lung greater than 100 µM.

For `CN(COC(=O)c1ccccc1)c1nc(N(C)COC(=O)c2ccccc2)nc(N(C)COC(=O)c2ccccc2)n1`, in the assay on MDA-N, the TGI was greater than 100 µM.

In the assay on MDA-N, `Clc1ccc(-c2nnc(-c3cccc4ccccc34)o2)cc1Cl` returned a TGI greater than 100 µM.

On to `C#CC[N+](C)(CC#C)CC#C`, for which the TGI in the assay with XF 498 CNS, in the assay with RXF-631 renal, with M19-MEL melanoma, with DLD-1 colon, in the assay with SNB-78 CNS and with LXFL 529 NSCLC was greater than 100 µM in each case. In the assay on DMS 114 small cell lung, this compound came in with a TGI greater than 100 µM.

In the case of `Cc1cccc(C(C)C)c1N1C(=O)C(=O)C(c2nc3ccccc3o2)C(=O)C1=O`, the TGI in the assay on XF 498 CNS is 69.1 µM; with RXF-631 renal it was greater than 100 µM; with M19-MEL melanoma it was greater than 100 µM; in the assay with DLD-1 colon it was greater than 100 µM; with SNB-78 CNS, greater than 100 µM; in the assay on LXFL 529 NSCLC it was greater than 100 µM. The TGI in the assay on HOP-18 NSCLC is greater than 100 µM; in the assay with DMS 114 small cell lung, 75.8 µM.

As for `NC(=O)c1ccccc1NC(=O)C(=O)Cc1nc2ccccc2[nH]c1=O`, the TGI in the assay with RXF-631 renal, in the assay with M19-MEL melanoma, in the assay with DLD-1 colon, in the assay with LXFL 529 NSCLC and with DMS 114 small cell lung was greater than 100 µM throughout.

Consider `COC(=O)C(=CNC(N)=O)C(=O)OC`, for which, in the assay on MDA-N, the TGI is greater than 100 µM.

Compound `O=C(O)C1CCCCC1c1c2ccc(=O)c(O)c-2oc2c(O)c(O)ccc12` (centres undefined) returned a TGI in the assay with MDA-N of 44.9 µM.

As to `COc1cc(OC)c2nccc(NCCCN(C)C)c2c1[N+](=O)[O-]`, in the assay with MDA-N, the TGI was greater than 100 µM.

`O=[N+]([O-])c1ccc(-c2noc(-c3ccc(Cl)cc3)c2C2=NCCN2)cc1`: the TGI with XF 498 CNS, in the assay on M19-MEL melanoma, in the assay on DLD-1 colon, in the assay with SNB-78 CNS, in the assay with LXFL 529 NSCLC and in the assay with HOP-18 NSCLC was greater than 100 µM in each case.

In the case of `CN(C)C(=Nc1nc(=[N+](C)C)ss1)N(C)C`, the TGI in the assay on XF 498 CNS, in the assay with RXF-631 renal, in the assay with M19-MEL melanoma, in the assay with DLD-1 colon, in the assay on LXFL 529 NSCLC and with HOP-18 NSCLC was greater than 100 µM each time. In the assay on DMS 114 small cell lung, this compound displayed a TGI greater than 100 µM.

`O=C(CC1(O)C(=O)Nc2ccc(Br)cc21)c1ccc(Cl)cc1Cl` (centres undefined): the TGI in the assay on RXF-631 renal is greater than 100 µM; in the assay with M19-MEL melanoma, 29.1 µM; in the assay with DLD-1 colon it was greater than 100 µM; in the assay with SNB-78 CNS it was greater than 100 µM; with LXFL 529 NSCLC it was greater than 100 µM; in the assay on DMS 114 small cell lung, 46.8 µM.

On to `O=[N+]([O-])c1ccc(Cl)c(C2CC(c3cccc4ccccc34)=Nc3ccccc3S2)c1` (centres undefined), for which the TGI is greater than 100 µM with RXF-631 renal; greater than 66.1 µM with M19-MEL melanoma; 28.1 µM with DLD-1 colon; greater than 66.7 µM with SNB-78 CNS; 88.9 µM in the assay on LXFL 529 NSCLC; greater than 100 µM with HOP-18 NSCLC. This compound gave a TGI in the assay on DMS 114 small cell lung of 84.5 µM.
